Converted amounts (≈) assume the structure as drawn. Counter-ions that a name gives are not always drawn. Like-named read-outs stand apart in the source and are kept apart here.
Assays:
[1] = test system: murine fibroblasts and test microorganisms (Escherichia coli and Staphylococcus aureus)
From the text: The term “biocompatibility index” is defined by the active agent's effective biological activity and its cytotoxic effect on human or animal cells. […] The biocompatibility index will take into account both the results of the in vitro cytotoxicity, i.e., the concentration at which 50% of the murine fibroblasts are damaged, and the microbial effect, i.e., the concentration at which the baseline burden of the test microorganisms (e.g., Escherichia coli and Staphylococcus aureus) is reduced by at least 3 log 10 (99.9%). A biocompatibility index greater than 1 represent an antibacterial substance with an effective microbicidal activity combined with a relatively low cytotoxicity. […] A biocompatibility index less than 1 indicates an antimicrobial agent with a relatively high cytotoxicity in a defined medium.

E. coli = conditions: cited from earlier work
[2] = literature values; cited from earlier work
human keratinocyte = conditions: cited from earlier work
S. mutans = assay: Antimicrobial studies against S. mutans; assay type: cell-based
From the text: According to an embodiment, the amphiphilic biologically active agent may be a synthetic, natural or derived compound having properties for treating or preventing a disease or illness, including: pharmaceutical drugs, pharmaceutical conjugated drugs, pharmaceutical prodrugs, antimicrobial or antiseptic agents, antifungal agents, peptides, DNA or any combinations thereof, which when introduced into the body causes a desired biological response. According to another embodiment, the amphiphilic biologically active agent may be an active agent with a suitable biocompatibility index. Such biologically active agent may have a biocompatibility index greater than 1. According to another embodiment, the preferred amphiphilic biologically active agent may be an antibacterial agent. According to a further embodiment, the most preferred amphiphilic biologically active agent may be the antibacterial agent OCT. OCT is an amphiphilic antiseptic agent with a biocompatibility index of greater than 1. OCT has shown a broad range of efficacy against gram positive and negative bacteria and is used currently as a mouth rinse, wound cleansing agent, topical antiseptic, and for other applications. The CMC of OCT was determined to be 3.79 mM.

murine fibroblasts = conditions: cited from earlier work
[3] = test system: murine fibroblasts and test microorganisms (Escherichia coli and Staphylococcus aureus); conditions: cited from earlier work
mammalian cell = conditions: cited from earlier work
S. aureus = conditions: cited from earlier work

CCCCCCCCCCCC(=O)N[C@@H](CCCN=C(N)N)C(=O)OCC [LAE, lauric arginate]
biocompatibility index [1]: 5.33 | MIC against E. coli (E. coli): 11.8 µg/mL (≈ 30.7 µM) | CMC [2]: 4.9 mM | concentration for 50% reduction of human keratinocyte growth (human keratinocyte): 63 µg/mL

CCCCCCCCN=c1ccn(CCCCCCCCCCn2ccc(=NCCCCCCCC)cc2)cc1 [OCT, octenidine dihydrochloride]
antimicrobial activity compared with CHX (S. mutans): compared favorably with CHX

CCCCCCCCCCCCCCCC[N+](C)(C)C.[Br-] [CTAB, cetyltrimethylammonium bromide]
concentration for 50% reduction in murine fibroblasts (murine fibroblasts): 2 µg/mL | biocompatibility index [3]: less than 1 | concentration able to reduce mammalian cell viability (mammalian cell): less than 1 μM | minimum inhibitory concentration (MIC) against S. aureus (S. aureus): 16 µg/mL

benzalkonium chloride
biocompatibility index [3]: 0.79

polyhexamethylene biguanide [PHMB]
CMC [2]: 20 to 50 mM | biocompatibility index ([3]; reported in literature): 1.36

From patent publication US12220467B2, “Highly loaded metal oxide materials by self-assembly for extended biologically active molecule release in medical and dental applications” (MESOSIL INC., priority 2016, dated 2025)
